Test results as given in US7589174B2, “GRP94-based compositions and methods of use thereof” (The Children's Hospital of Philadelphia, priority 2003, dated 2009).
Like-named read-outs stand apart in the source and are kept apart here.

How the values were obtained:
GRP94 [1] = target: T1, GRP94 (Mus musculus, UniProt P08113); assay: Solid phase 96-well plate assay of peptide binding by recombinant GRP94 N-terminal fragments; design: His6 tagged N355, comprising of amino acids 34-355 of GRP94; made in house; host or cells: E. coli M15; species or system murine
grp94-/- ES cells = details: 1 mM EGTA, FIG. 14E-F
WT ES cells = details: 1 mM EGTA, FIG. 14E-F
GRP94 [2] = target: GRP94 (Homo sapiens, UniProt P14625); assay: GRP94 binding of antigenic peptides (Table 3)
GRP94 [3] = details: vast molar excess of peptide, 10 min 50° C. treatment of the protein
GRP94 [4] = target: T1, GRP94; design: a truncated version of GRP94, containing amino acids 1-355; made in house; host or cells: insect cells; details: full-length GRP94, ref [14]; cited from earlier work
GRP94 [5] = assay: Solid phase 96-well plate assay of peptide binding by recombinant GRP94 N-terminal fragments; design: species or system murine
[6] = tested on: radicicol-binding pocket of GRP94; assay: Radicicol binding judged by conformational change on blue native gel electrophoresis; design: species or system murine; details: 300 μM radicicol or DMSO
[7] = tested on: purified mouse dendritic cells; assay: Binding and uptake of GRP94 N-terminal domain by dendritic cells; assay type: cell-based; details: bound at 40° C., warmed to 37° C., into endosomal vesicles, FIG. 16
tumors = details: vaccinated mice, Blachere et al. 1997; cited from earlier work
[8] = antigenic peptides that can be loaded on GRP94

GRP94 (Homo sapiens, UniProt P14625), sequence (P14625 22-803, species assumed): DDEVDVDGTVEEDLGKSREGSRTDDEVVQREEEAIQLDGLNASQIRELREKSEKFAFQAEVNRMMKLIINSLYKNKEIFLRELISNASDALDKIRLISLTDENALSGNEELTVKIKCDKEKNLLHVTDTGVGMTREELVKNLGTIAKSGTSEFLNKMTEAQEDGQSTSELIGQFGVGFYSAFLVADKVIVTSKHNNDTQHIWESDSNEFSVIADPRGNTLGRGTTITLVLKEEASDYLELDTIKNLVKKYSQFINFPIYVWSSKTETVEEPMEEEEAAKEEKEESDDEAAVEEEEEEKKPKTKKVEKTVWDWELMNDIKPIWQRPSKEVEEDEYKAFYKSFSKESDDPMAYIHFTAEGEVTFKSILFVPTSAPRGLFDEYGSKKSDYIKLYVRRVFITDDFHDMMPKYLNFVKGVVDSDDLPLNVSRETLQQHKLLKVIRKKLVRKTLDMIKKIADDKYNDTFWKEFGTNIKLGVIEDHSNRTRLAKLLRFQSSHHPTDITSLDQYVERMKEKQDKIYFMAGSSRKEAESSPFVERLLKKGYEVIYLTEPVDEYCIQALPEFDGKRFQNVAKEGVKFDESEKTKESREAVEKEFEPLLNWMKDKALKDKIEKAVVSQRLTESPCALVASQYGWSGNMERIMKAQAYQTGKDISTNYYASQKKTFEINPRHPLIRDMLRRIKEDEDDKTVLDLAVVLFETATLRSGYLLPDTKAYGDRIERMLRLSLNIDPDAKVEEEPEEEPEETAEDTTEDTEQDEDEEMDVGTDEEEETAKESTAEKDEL

Question: Which “Effect of histidine modification on peptide-binding activity of N34-355” value (GRP94 [1]; His6 tag cleaved, peptide A-coated plates, 0.7 μg protein per well, FIG. 6C) does the source give for `CCOC(=O)OC(=O)OCC` [DEPC, Diethyl pyrocarbonate] here?
Answer: Its value is “abolished”.

Question: With `O=C(O)CN(CCOCCOCCN(CC(=O)O)CC(=O)O)CC(=O)O` [EGTA] as the molecule, how does the “Growth under Ca++-chelating conditions, -/- cells” value (grp94-/- ES cells) read?
Answer: Its value is “cannot grow”.

Question: What about the “Growth under Ca++-chelating conditions, WT cells” value (WT ES cells) of the same molecule?
Answer: The value was “can grow for 5 days”.

Question: For `NO` [Hydroxylamine], which “Effect of histidine modification on peptide-binding activity of N34-355” value (GRP94 [1]) is on record?
Answer: Its value is “restored the activity”.

Question: Which IC50 (GRP94 [1]; N34-355 binding to peptide A, FIG. 6B, read-out: Imidazole concentration that reduced peptide binding by half) does the source give for `c1c[nH]cn1` [imidazole] here?
Answer: The IC50 was 6 mM.

Question: With FLWGPRALV [MAGE 3] as the molecule, how does the GRP94 binding (GRP94 [2]; [8]) read?
Answer: Its GRP94 binding is “yes”.

Question: With Glucose Regulated Protein 94 [GRP94] as the molecule, how does the “Fraction of the protein that can be loaded with peptide” value (GRP94 [3]) read?
Answer: The value was “up to 85%”.

Question: And the “Fraction of the protein shown to bind peptides” value (GRP94 [4])?
Answer: The value was “about 1%”.

Question: For KRQIYTDLEMNRLGK [PepA], which “Binder or non-binder of GRP94 in the peptide binding assay” value (GRP94 [1]) is on record?
Answer: The value was “binder”.

Question: For RAHYNIVTF (RAH), which GRP94 binding (GRP94 [2]) is on record?
Answer: The GRP94 binding was “yes, weak”.

Question: For RGYVYQGL [VSV8], which GRP94 binding (GRP94 [2]) is on record?
Answer: Its GRP94 binding is “yes”.

Question: What about the “Binder or non-binder of GRP94 in the peptide binding assay” value (GRP94 [1]) of the same molecule?
Answer: The value was “binder”.

Question: Which GRP94 binding (GRP94 [2]; [8]) does the source give for SIINFEKL [OVA 257-264] here?
Answer: The GRP94 binding was “yes”.

B1: H125D: N34-355 with His125 mutated to Asp (protein, UniProt P14625 34-355, looked up, variant H125D)
chain: DLGKSREGSRTDDEVVQREEEAIQLDGLNASQIRELREKSEKFAFQAEVNRMMKLIINSLYKNKEIFLRELISNASDALDKIRLISLTDENALSGNEELTVKIKCDKEKNLLDVTDTGVGMTREELVKNLGTIAKSGTSEFLNKMTEAQEDGQSTSELIGQFGVGFYSAFLVADKVIVTSKHNNDTQHIWESDSNEFSVIADPRGNTLGRGTTITLVLKEEASDYLELDTIKNLVKKYSQFINFPIYVWSSKTETVEEPMEEEEAAKEEKEESDDEAAVEEEEEEKKPKTKKVEKTVWDWELMNDIKPIWQRPSKEVEEDEY
modifications: fragment 34-355 His6 tag, factor Xa site
notes: N34-355 with His125 mutated to Asp
Question: For B1, which Peptide binding activity (GRP94 [5]; peptide A-coated plates, 0.7 or 2 μg protein, FIG. 7A) is on record?
Answer: The Peptide binding activity was “almost no peptide binding activity”.

Question: And the “Radicicol binding (conformational change, native gel mobility, 9G10 epitope)” value [6]?
Answer: The value was “retained its ability to bind the inhibitor radicicol”.

B2: N34-355: Recombinant GRP94 fragment, amino acids 34-355, N-terminal His6 tag and factor Xa site, expressed in E. coli (protein)
chain: PYNGTGSAIQLDGLNASQIRELREKSEKFAFQAEVNRMMKLIINSLYKNKEIFLRELISNASDALDKIRLISLTDENALSGNEELTVKIKCDKEKNLLHVTDTGVGMTREELVKNLGTIAKSGTSEFLNKMTEAQEDGQSTSELIGQFGVGFYSAFLVADKVIVTSKHNNDTQHIWESDSNEFSVIADPRGNTLGRGTTITLVLKEEASDYLELDTIKNLVKKYSQFINFPIYVWSSKTETVEEPMEEEEAAKEEKEESDDEAAVEEEEEEKKPKTKKVEKTVWDWELMNDIKPIWQRPSKEVEEDEYKAFYKSFSKESDDPMAYIHFT
modifications: left off: small tags and cut ends
notes: Recombinant GRP94 fragment, amino acids 34-355, N-terminal His6 tag and factor Xa site, expressed in E. coli
Question: Which “Inhibition of peptide binding activity by pre-treatment with radicicol” value (GRP94 [5]) does the source give for B2 here?
Answer: Its value is “inhibited significantly”.

Question: And the “Uptake by dendritic cells” value [7]?
Answer: Its value is “internalized”.

Question: And the “Binding of VSV8 peptide (dose binding curve)” value (GRP94 [1]; VSV8-coated plates, compared with N1-355, FIG. 1B)?
Answer: The value was “binding curve very similar to that of N1-355”.

B3: GRP94 bound to tumor peptides: GRP94 complexed with tumor peptides, used to vaccinate mice (Srivastava's lab) (protein, UniProt P08113 22-802, looked up)
Endoplasmin: DDEVDVDGTVEEDLGKSREGSRTDDEVVQREEEAIQLDGLNASQIRELREKSEKFAFQAEVNRMMKLIINSLYKNKEIFLRELISNASDALDKIRLISLTDENALAGNEELTVKIKCDKEKNLLHVTDTGVGMTREELVKNLGTIAKSGTSEFLNKMTEAQEDGQSTSELIGQFGVGFYSAFLVADKVIVTSKHNNDTQHIWESDSNEFSVIADPRGNTLGRGTTITLVLKEEASDYLELDTIKNLVRKYSQFINFPIYVWSSKTETVEEPLEEDEAAKEEKEESDDEAAVEEEEEEKKPKTKKVEKTVWDWELMNDIKPIWQRPSKEVEEDEYKAFYKSFSKESDDPMAYIHFTAEGEVTFKSILFVPTSAPRGLFDEYGSKKSDYIKLYVRRVFITDDFHDMMPKYLNFVKGVVDSDDLPLNVSRETLQQHKLLKVIRKKLVRKTLDMIKKIADEKYNDTFWKEFGTNIKLGVIEDHSNRTRLAKLLRFQSSHHSTDITSLDQYVERMKEKQDKIYFMAGSSRKEAESSPFVERLLKKGYEVIYLTEPVDEYCIQALPEFDGKRFQNVAKEGVKFDESEKTKESREATEKEFEPLLNWMKDKALKDKIEKAVVSQRLTESPCALVASQYGWSGNMERIMKAQAYQTGKDISTNYYASQKKTFEINPRHPLIRDMLRRIKEDEDDKTVMDLAVVLFETATLRSGYLLPDTKAYGDRIERMLRLSLNIDPEAQVEEEPEEEPEDTSEDAEDSEQDEGEEMDAGTEEEEEETEKESTEKDEL
modifications: complexed with tumor peptides
Question: With B3 as the molecule, how does the “Improvement of T cell responses on tumor challenge compared to control mice” value (tumors) read?
Answer: The value was 10-200 fold.
